Data from ChEMBL document CHEMBL5104172, “Design, synthesis, and antibacterial activity of derivatives of Tryptophanyl-tRNA synthetase inhibitor indolmycin” (Eur J Med Chem, 2022).
≈ marks a conversion by molar mass, not a printed value.

Legend:
Type in all cases: functional
Staphylococcus aureus [1] = test: Antibacterial activity against methicillin-resistant Staphylococcus aureus NRS384 measured by liquid dilution method
Escherichia coli = test: Antibacterial activity against Escherichia coli ATCC 25922 measured by liquid dilution method
Staphylococcus aureus [2] = test: Antibacterial activity against Staphylococcus aureus ATCC 29213 measured by liquid dilution method

Row | Compound | MIC (Staphylococcus aureus [1]) [µg/mL] | MIC (Escherichia coli) [µg/mL] | MIC (Staphylococcus aureus [2]) [µg/mL]
1 | CNC1=NC(=O)C(C(C)c2c[nH]c3ccccc23)S1 (racemic) | > 128 | > 128 | 4 (≈ 14.6 µM)
2 | CNC1=NC(=O)C(C(C)c2c[nH]c3cccc(Cl)c23)O1 (racemic) | 2 (≈ 6.86 µM) | 128 (≈ 439 µM) | 1 (≈ 3.43 µM)
3 | CNC1=NC(=O)C(C(C)c2c[nH]c3ccccc23)O1 (racemic) | 1 (≈ 3.89 µM) | 1 (≈ 3.89 µM) | 1 (≈ 3.89 µM)
4 | CNC1=NC(=O)C(C(C)c2c[nH]c3cccc(N4CCCC4)c23)O1 (racemic) | > 128 | > 128 | 128 (≈ 392 µM)
5 | CNC1=NC(=O)C(C(C)c2c[nH]c3cccc(F)c23)S1 (racemic) | > 128 | > 128 | 8 (≈ 27.5 µM)
6 | CNC1=NC(=O)C(C(C)c2c[nH]c3c(F)cccc23)O1 (racemic) | 8 (≈ 29.1 µM) | 16 (≈ 58.1 µM) | 8 (≈ 29.1 µM)
7 | CNC1=NC(=O)C(C(C)c2c[nH]c3cc(Br)ccc23)O1 (racemic) | 16 (≈ 47.6 µM) | 4 (≈ 11.9 µM) | > 128
8 | CNC1=NC(=O)C(C(C)c2c[nH]c3c(Br)cccc23)O1 (racemic) | > 128 | > 128 | > 128
9 | CNC1=NC(=O)C(C(C)c2c[nH]c3cccc(Cl)c23)S1 (racemic) | > 128 | > 128 | 8 (≈ 26 µM)
10 | CNC1=NC(=O)C(C(C)c2c[nH]c3ccc(C)cc23)O1 (racemic) | > 128 | > 128 | > 128
11 | CNC1=NC(=O)C(C(C)c2c[nH]c3ccc(Br)cc23)O1 (racemic) | 64 (≈ 190 µM) | 4 (≈ 11.9 µM) | > 128
12 | CNC1=NC(=O)C(C(C)c2c[nH]c3cc(C)ccc23)O1 (racemic) | 8 (≈ 29.5 µM) | 16 (≈ 59 µM) | > 128
13 | CC(c1c[nH]c2ccccc12)C1OC(N)=NC1=O (racemic) | > 128 | > 128 | 8 (≈ 32.9 µM)
14 | CNC1=NC(=O)C(C(C)c2c[nH]c3cccc(Br)c23)S1 (racemic) | > 128 | > 128 | 16 (≈ 45.4 µM)
15 | CNC1=NC(=O)C(C(C)c2c[nH]c3ccc(N4CCCCC4)cc23)O1 (racemic) | > 128 | > 128 | > 128
16 | CNC1=NC(=O)C(C(C)c2c[nH]c3c(C)cccc23)O1 (racemic) | > 128 | > 128 | > 128
17 | CNC1=NC(=O)C(C(C)c2c[nH]c3cccc(Br)c23)O1 (racemic) | > 128 | > 128 | 4 (≈ 11.9 µM)
18 | CNC1=NC(=O)C(C(C)c2c[nH]c3cccc(O)c23)O1 (racemic) | 8 (≈ 29.3 µM) | > 128 | > 128
19 | CNC1=NC(=O)C(C(C)c2c[nH]c3cccc(OCc4ccccc4)c23)O1 (racemic) | > 128 | > 128 | > 128
20 | CNC1=NC(=O)C(C(C)c2c[nH]c3ccc(F)cc23)O1 (racemic) | 64 (≈ 232 µM) | 128 (≈ 465 µM) | 32 (≈ 116 µM)
21 | CNC1=NC(=O)C(C(C)c2c[nH]c3cccc(OC)c23)O1 (racemic) | > 128 | 16 (≈ 55.7 µM) | 128 (≈ 445 µM)
22 | CNC1=NC(=O)C(C(C)c2c[nH]c3cccc(C)c23)S1 (racemic) | > 128 | > 128 | 4 (≈ 13.9 µM)
23 | CNC1=NC(=O)C(C(C)c2c[nH]c3cccc(F)c23)O1 (racemic) | 1 (≈ 3.63 µM) | 4 (≈ 14.5 µM) | 1 (≈ 3.63 µM)
24 | CNC1=NC(=O)C(C(C)c2c[nH]c3cccc(N4CCCCC4)c23)O1 (racemic) | > 128 | > 128 | 64 (≈ 188 µM)
25 | CCN(CC)c1cccc2[nH]cc(C(C)C3OC(NC)=NC3=O)c12 (racemic) | > 128 | > 128 | 64 (≈ 195 µM)
26 | CNC1=NC(=O)C(C(C)c2c[nH]c3cc(F)ccc23)O1 (racemic) | 8 (≈ 29.1 µM) | 8 (≈ 29.1 µM) | 16 (≈ 58.1 µM)
27 | CNC1=NC(=O)C(C(C)c2c[nH]c3cccc(C)c23)O1 (racemic) | > 128 | 32 (≈ 118 µM) | 2 (≈ 7.37 µM)
